Molecular target: ATP6V0D1 (V-ATPase V0 domain subunit d1) (Homo sapiens, UniProt P61421)
Experiment: SPR
Assay type: binding

Sequence of ATP6V0D1 (V-ATPase V0 domain subunit d1) (P61421 whole entry, the tested form may be a part): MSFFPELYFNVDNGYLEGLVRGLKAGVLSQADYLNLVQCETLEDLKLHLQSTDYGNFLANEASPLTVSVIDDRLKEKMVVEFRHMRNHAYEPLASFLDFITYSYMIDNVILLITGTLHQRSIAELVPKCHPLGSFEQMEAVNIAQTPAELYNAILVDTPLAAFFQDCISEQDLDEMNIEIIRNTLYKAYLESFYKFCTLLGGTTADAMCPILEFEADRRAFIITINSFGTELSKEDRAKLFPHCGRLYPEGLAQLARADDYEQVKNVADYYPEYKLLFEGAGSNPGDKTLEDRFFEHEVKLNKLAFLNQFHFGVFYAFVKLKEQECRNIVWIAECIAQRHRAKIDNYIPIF

## COc1cc2c(c(OC)c1OC)-c1c(cc(OC)c(OC)c1OC)C[C@](C)(O)[C@@H](C)C2 [SolA, Schisandrol A]
  Kd: 2000 nM

— paper PMC9532558 (Acta Pharmaceutica Sinica. B, 2022)
